Assay results reported in patent publication US10966426B2, “Herbicidal compositions comprising phenylpyrimidines” (BASF SE, priority 2016, dated 2021).
Where “and” joins values, the source holds several entries; their conditions need not be identical. Identical values can stand only once.

Experiments:
Assay type in all cases: in vivo
Avena fatua = experiment: greenhouse post-emergence treatment, AVEFA; conditions: Ex. 26 solo, AVEFA
Summary of the method: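 Scoring used a 0 to 100 scale, with 100 denoting no emergence or full destruction of at least the above-ground parts, recorded within a 2 to 4 week test period. Test plants grew in loamy sand containing about 3.0% humus at 10-25° C. or 20-35° C., after direct sowing or transplanting, and received water-based treatments post-emergence.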

Helianthus annuus = experiment: greenhouse post-emergence treatment, HELAN
Summary of the method: (§1)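 Greenhouse; post-emergence spray at 3–15 cm; aqueous EC formulation; 2–4 weeks; 0–100 visual score.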

Polygonum convolvulus = experiment: greenhouse pre-emergence treatment, POLCO
Summary of the method: (§2)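 Seeds were sown per species in pots of loamy sand with about 3.0% humus, sprayed with the aqueous spray liquor directly after sowing, watered and hooded until rooted, then kept at 10-25° C. or 20-35° C. for 2 to 4 weeks. Damage was scored 0 (none) to 100 (no emergence/complete destruction).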

Apera spica-venti [1] = experiment: greenhouse post-emergence treatment, APESV
Summary of the method: as §1

Apera spica-venti [2] = experiment: greenhouse pre-emergence treatment, APESV
Summary of the method: as §2

Alopecurus myosuroides = experiment: greenhouse pre-emergence treatment, ALOMY; conditions: 20 DAT
Summary of the method: as §2

Stellaria media = experiment: greenhouse pre-emergence treatment, STEME
Summary of the method: as §2

Bromus sterilis = experiment: greenhouse pre-emergence treatment, BROST
Summary of the method: as §2

Galium aparine = experiment: greenhouse post-emergence treatment, GALAP
Summary of the method: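 Each species was grown separately and treated once it reached 3 to 15 cm, using actives suspended or emulsified in water. Plants were kept at 10-25° C. or 20-35° C., depending on species. Damage is a 0–100 rating taken during 2 to 4 weeks.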

[3] = Ex. 26 solo, 125 gai/ha, 20 DAT

COC(=O)c1nc(C2CC2)ncc1-c1ccc(F)cc1Cl [Ex. 26]
% activity (Avena fatua; 125 gai/ha, 20 DAT): 65% | % activity (Avena fatua; 125 gai/ha, 21 DAT): 70% | % activity (Avena fatua; 250 gai/ha, 20 DAT): 85% | % activity (Helianthus annuus; 20 DAT, Ex. 26 solo 250 gai/ha): 0% | % activity (Helianthus annuus; 20 DAT, HELAN, Ex. 26 solo 125 gai/ha): 0% and 10% | % activity (Helianthus annuus; 20 DAT, HELAN, Ex. 26 solo 250 gai/ha): 10% | % activity (Helianthus annuus; Ex. 26 solo 62.5 gai/ha, 20 DAT, HELAN): 0% | % activity (Helianthus annuus; Ex. 26 solo 125 gai/ha, 20 DAT, HELAN): 0% | % activity (Helianthus annuus; Ex. 26 solo 250 gai/ha, 20 DAT, HELAN): 5% | % activity (Helianthus annuus; Ex. 26 solo, 125 gai/ha, 21 DAT, HELAN): 10% | % activity (Helianthus annuus; Ex. 26 solo, 250 gai/ha, 21 DAT, HELAN): 25% | % activity (Polygonum convolvulus; 20 DAT, Ex. 26 solo 62.5 gai/ha): 0% | % activity (Polygonum convolvulus; 20 DAT, Ex. 26 solo 125 gai/ha): 0% | % activity (Polygonum convolvulus; 20 DAT, POLCO, Ex. 26 solo 31.25 gai/ha): 0% | % activity (Polygonum convolvulus; 20 DAT, POLCO, Ex. 26 solo 62.5 gai/ha): 0% | % activity (Polygonum convolvulus; 20 DAT, POLCO, Ex. 26 solo 125 gai/ha): 0% | % activity (Polygonum convolvulus; 20 DAT, POLCO, Ex. 26 solo 250 gai/ha): 30% | % activity (Polygonum convolvulus; Ex. 26 solo 62.5 gai/ha, 20 DAT, POLCO): 0% | % activity (Polygonum convolvulus; Ex. 26 solo 125 gai/ha, 20 DAT, POLCO): 0% | % activity (Polygonum convolvulus; Ex. 26 solo, 62.5 gai/ha, 20 DAT, POLCO): 0% | % activity (Polygonum convolvulus; Ex. 26 solo, 125 gai/ha, 20 DAT, POLCO): 0% | % activity (Polygonum convolvulus; POLCO, 20 DAT, solo Ex. 26 62.5 gai/ha): 0% | % activity (Polygonum convolvulus; POLCO, 20 DAT, solo Ex. 26 125 gai/ha): 0% | % activity (Polygonum convolvulus; POLCO, Ex. 26 solo 125 gai/ha, 20 DAT): 0% | % activity (Polygonum convolvulus; POLCO, Ex. 26 solo 250 gai/ha, 20 DAT): 30% | % activity (Apera spica-venti [1]; 20 DAT, APESV, Ex. 26 solo 62.5 gai/ha): 70% | % activity (Apera spica-venti [1]; 20 DAT, APESV, Ex. 26 solo 125 gai/ha): 75% | % activity (Apera spica-venti [1]; 20 DAT, APESV, Ex. 26 solo 250 gai/ha): 80% | % activity (Apera spica-venti [1]; 21 DAT, Ex. 26 solo 125 gai/ha): 65% | % activity (Apera spica-venti [1]; 21 DAT, Ex. 26 solo 250 gai/ha): 75% | % activity (Apera spica-venti [1]; APESV, Ex. 26 solo 125 gai/ha, 20 DAT): 75% and 70% | % activity (Apera spica-venti [1]; APESV, Ex. 26 solo 250 gai/ha, 20 DAT): 75% | % activity (Apera spica-venti [1]; Ex. 26 solo 62.5 gai/ha, 20 DAT, APESV): 60% | % activity (Apera spica-venti [1]; Ex. 26 solo 125 gai/ha, 20 DAT, APESV): 70% | % activity (Apera spica-venti [1]; Ex. 26 solo 250 gai/ha, 20 DAT, APESV): 75% | % activity (Apera spica-venti [2]; 20 DAT, Ex. 26 solo 125 gai/ha): 90% | % activity (Apera spica-venti [2]; 20 DAT, solo Ex. 26 125 gai/ha): 75% | % activity (Apera spica-venti [2]; 20 DAT, solo Ex. 26 125 gai/ha (Table X68)): 70% | % activity (Apera spica-venti [2]; Ex. 26 solo 125 gai/ha, 20 DAT): 65% | % activity (Apera spica-venti [2]; [3]): 70% | % activity (Alopecurus myosuroides; solo Ex. 26 62.5 gai/ha): 85% | % activity (Alopecurus myosuroides; Ex. 26 solo 62.5 gai/ha): 60% | % activity (Alopecurus myosuroides; Ex. 26 solo, 31.25 gai/ha): 60% | % activity (Alopecurus myosuroides; Ex. 26 solo, 62.5 gai/ha): 80% | % activity (Stellaria media; 20 DAT, Ex. 26 solo 125 gai/ha): 20% | % activity (Stellaria media; 20 DAT, Ex. 26 solo 250 gai/ha): 90% | % activity (Stellaria media; 20 DAT, solo Ex. 26 15 gai/ha): 40% | % activity (Stellaria media; 20 DAT, solo Ex. 26 62.5 gai/ha): 30% | % activity (Stellaria media; 20 DAT, solo Ex. 26 125 gai/ha): 0% | % activity (Stellaria media; Ex. 26 solo 31.25 gai/ha, 20 DAT): 0% | % activity (Stellaria media; Ex. 26 solo 62.5 gai/ha, 20 DAT): 0% | % activity (Stellaria media; Ex. 26 solo 125 gai/ha, 21 DAT): 30% | % activity (Stellaria media; Ex. 26 solo 250 gai/ha, 21 DAT): 80% | % activity (Stellaria media; Ex. 26 solo, 62.5 gai/ha, 20 DAT): 0% | % activity (Stellaria media; [3]): 0% | % activity (Bromus sterilis; 20 DAT, BROST, Ex. 26 solo 31.25 gai/ha): 10% | % activity (Bromus sterilis; 20 DAT, BROST, Ex. 26 solo 125 gai/ha): 35% | % activity (Bromus sterilis; 21 DAT, BROST, Ex. 26 solo 125 gai/ha): 60% | % activity (Bromus sterilis; BROST, 20 DAT, solo Ex. 26 125 gai/ha): 35% | % activity (Bromus sterilis; BROST, 20 DAT, solo Ex. 26 125 gai/ha (Table X68)): 30% | % activity (Bromus sterilis; BROST, Ex. 26 solo 62.5 gai/ha, 20 DAT): 20% | % activity (Bromus sterilis; BROST, Ex. 26 solo 125 gai/ha, 20 DAT): 30% | % activity (Bromus sterilis; Ex. 26 solo 125 gai/ha, 20 DAT, BROST): 35% | % activity (Bromus sterilis; Ex. 26 solo, 31.25 gai/ha, 20 DAT, BROST): 0% | % activity (Bromus sterilis; Ex. 26 solo, 62.5 gai/ha, 20 DAT, BROST): 20% | % activity (Bromus sterilis; Ex. 26 solo, 125 gai/ha, 20 DAT, BROST): 30% | % activity (Galium aparine; 20 DAT, Ex. 26 solo 125 gai/ha): 0% | % activity (Galium aparine; 20 DAT, GALAP, Ex. 26 solo 62.5 gai/ha): 0% | % activity (Galium aparine; 20 DAT, GALAP, Ex. 26 solo 125 gai/ha): 0% | % activity (Galium aparine; 20 DAT, GALAP, Ex. 26 solo 250 gai/ha): 0% | % activity (Galium aparine; Ex. 26 solo 62.5 gai/ha, 20 DAT, GALAP (pyridate table)): 0% | % activity (Galium aparine; Ex. 26 solo 62.5 gai/ha, 20 DAT, GALAP (pyroxsulam table)): 0% | % activity (Galium aparine; Ex. 26 solo 125 gai/ha, 20 DAT, GALAP (pyridate table)): 0% | % activity (Galium aparine; Ex. 26 solo 125 gai/ha, 20 DAT, GALAP (pyroxsulam table)): 0% | % activity (Galium aparine; Ex. 26 solo 125 gai/ha, 21 DAT, GALAP): 0% | % activity (Galium aparine; Ex. 26 solo 250 gai/ha, 20 DAT, GALAP (pyridate table)): 0% | % activity (Galium aparine; Ex. 26 solo 250 gai/ha, 20 DAT, GALAP (pyroxsulam table)): 30% | % activity (Galium aparine; Ex. 26 solo 250 gai/ha, 21 DAT, GALAP): 0% | % activity (Galium aparine; GALAP, 21 DAT, solo Ex. 26 250 gai/ha): 25% | % activity (Galium aparine; GALAP, Ex. 26 solo 125 gai/ha, 20 DAT): 0% | % activity (Galium aparine; GALAP, Ex. 26 solo 250 gai/ha, 20 DAT): 0%
